Source: article PMC9127371, “Assembly of nuclear dimers of PI3K regulatory subunits is regulated by the Cdc42-activated tyrosine kinase ACK” (The Journal of Biological Chemistry, 2022)

How the values were obtained:
Assay type in all cases: cell-based
ACK–p85α complex = test: Co-immunoprecipitation of ACK with p85α from nuclear-enriched fractions of HEK293T cells; conditions: AIM-100 8 μM, anti-FLAG immunoprecipitation
Protocol: (§1) Figure 7 Subcellular localization of the ACK–p85α complex. ACK and WT p85α were expressed alone and together in HEK293T cells. Where indicated, cells were treated with 8 μM AIM-100. Fractionation was judged using anti-HSP56 to indicate cytoplasmic extracts and anti-fibrillarin to indicate nuclear-enriched fractions. Nuclear and cytoplasmic-enriched fractions were normalized using the Bradford assay, and FLAG-p85α was immunoprecipitated from fractions containing equal total protein using an anti-FLAG antibody. Top panel: Immunoprecipitation of FLAG-p85α and co-immunoprecipitation of HA-ACK was assessed by Western blotting using anti-FLAG and anti-HA antibodies. Bottom panel: Expression of FLAG-p85α and HA-ACK along with active ACK levels was confirmed by Western blotting of whole cell lysate (WCL) samples collected prior to cell fractionation. ACK, activated Cdc42-associated kinase.
Small-scale co-immunoprecipitations were performed using 1 μg antibody cross-linked to Protein G Dynabeads (Life Technologies) with dimethyl pimelimidate. HEK293T cells were grown in 10 cm dishes to 70% confluence and then transfected for 40 h. […]
Cells were grown in 10 cm dishes to 70% confluence and then transfected for 40 h. […] Cytoplasmic and nuclear-enriched fractions were then either analyzed by SDS-PAGE gel directly or used in co-immunoprecipitation studies.

[1] = system: HEK293T cells expressing WT p85β; test: Proliferation of HEK293T cells stably expressing WT p85β; conditions: AIM-100 8 μM; DMEM + 10% FBS; 1 μg/ml doxycycline; live cell counts, fold change over 24 h; three independent experiments
Protocol: (§2) Figure 4 Proliferation of HEK293T cells expressing ACK and p85β variants.A, proliferation of HEK293T cells stably expressing wtACK and caACK in 1% FBS. HEK293T cells stably expressing empty vector (control) or HA-tagged wtACK or caACK were seeded at a density of 3 × 10^4 cells per well. Cells were plated in replicates of three, and live cell counts were obtained at the times indicated. Data are plotted as fold change over t = 0 (seeding density). Data from three independent experiments are shown. Error bars represent SD. […] GAPDH is included as a loading control. Data are represented on the right in a bar chart with group significance testing performed by a two-way ANOVA; ∗p <0.05; ∗∗p < 0.01. B, proliferation of HEK293T cells stably expressing empty vector (control), WT p85β, or Y599F p85β. HEK293T cells stably expressing inducible FLAG-tagged WT p85β or p85β Y599F were seeded at a density of 3 × 10^4 cells per well and incubated at 37 °C for 16 h. All cells were then treated with 1 μg/ml doxycycline and incubated at 37 °C for the times indicated before live cell counts were taken. Data are plotted as fold change over the cell count at 24 h post doxycycline treatment. […]
(§3) Matched cell lines were chosen that had similar expression levels of the transgene. […] Cells were trypsinized and dispersed using a syringe before being counted using a Countess automated cell counter at specific timepoints. […]

[2] = system: HEK293T cells expressing Y599F p85β; test: Proliferation of HEK293T cells stably expressing Y599F p85β; conditions: AIM-100 8 μM; DMEM + 10% FBS; 1 μg/ml doxycycline; live cell counts, fold change over 24 h; three independent experiments
Protocol: as §2, §3

pTyr284 ACK = test: Active ACK level (pTyr284 ACK Western blot) in HEK293T cells; conditions: AIM-100 8 μM; HEK293T cells expressing ACK and WT p85α; Western blot of whole cell lysate
Protocol: as §1, with “kinase. […]” for “kinase.”

p85α–p85β complex = test: Co-immunoprecipitation of V5-p85β with FLAG-p85α from HEK293T cells; conditions: serum starved (0.05% serum, 16 h), then EGF 100 ng/ml for 5 min or insulin 100 μg/ml for 90 min; anti-FLAG immunoprecipitation; Fig. 6B
Protocol: (§4) Figure 6 Dimerization of the regulatory subunits. HEK293T cells were transfected with control (GFP), FLAG-p50α (A) or FLAG-p85α (B) alone or with V5-p85β. Expression of the proteins in whole cell lysates (WCLs) is shown in the bottom panels. As indicated, cells were cultured in high serum (10% serum) or serum starved (0.05% serum) for 16 h and prior to lysis were either left untreated or stimulated with either EGF (100 ng/ml for 5 min) or insulin (100 μg/ml for 90 min). Cells were harvested 40 h after transfection and subject to immunoprecipitation using anti-FLAG antibodies. Co-precipitation of V5-p85β was assessed by Western blotting of immunoprecipitated samples using anti-V5 antibodies (top panels). C, WT p85β, WT p50α, and Y307D p50α (equivalent to Tyr607 in p85α) were expressed alone or co-expressed in HEK293T cells cultured in low serum. Samples of WCLs were analyzed by Western blotting using the antibodies indicated and are shown in lower panels. GAPDH is included as a loading control. FLAG-tagged p50α variants were immunoprecipitated from cell lysates using an anti-FLAG antibody, and the co-immunoprecipitation of p85β was assessed using an anti-V5 antibody (top panels). Results are representative of at least three independent experiments. […]

p50α–p85β complex = test: Co-immunoprecipitation of V5-p85β with FLAG-p50α from HEK293T cells; conditions: serum starved (0.05% serum, 16 h), insulin 100 μg/ml for 90 min; anti-FLAG immunoprecipitation; Fig. 6A
Protocol: as §4

| Compound | p85α–ACK complex formation in the nucleus (ACK–p85α complex) | effect on proliferation of cells expressing WT p85β [1] | effect on proliferation of cells expressing Y599F p85β [2] | active ACK levels (pTyr284 ACK) (pTyr284 ACK) | p85α–p85β complex formation (p85α–p85β complex) | p50α–p85β complex formation (p50α–p85β complex) |
| --- | --- | --- | --- | --- | --- | --- |
| c1ccc(-c2oc3ncnc(NC[C@@H]4CCCO4)c3c2-c2ccccc2)cc1 [AIM-100] | did not block p85α–ACK complex formation | grew at a reduced rate | did not affect | reduced active ACK levels |  |  |
| EGF: EGF (a known stimulator of ACK) (NSDSECPLSHDGYCLHDGVCMYIEALDKYACNCVVGYIGERCQYRDLKWWELR; UniProt P01133 971-1023, looked up) |  |  |  |  | increase |  |
| insulin: Tyr607 phosphorylation has been detected downstream of insulin stimulation |  |  |  |  | not enhanced | increased complex formation |
